Data published in ChEMBL document CHEMBL4043221, “Natural neuro-inflammatory inhibitors from Caragana turfanensis” (Bioorg Med Chem Lett, 2017).

Experiments:
BV-2 [1] = experiment: Antineuroinflammatory activity in mouse BV2 cells assessed as inhibition of LPS-induced NO production after 24 hrs in presence of LPS by Griess reaction based assay; format: functional, cell-based; conditions: BV-2, 24 h
BV-2 [2] = experiment: Cytotoxicity against mouse BV2 cells assessed as reduction in cell viability at 1 to 100 uM after 24 hrs in presence of LPS by MTT assay; format: cell-based; conditions: bv-2, 24 h

| IC50 (BV-2 [1]) [µM] | SMILES | Activity (BV-2 [2]) |
| --- | --- | --- |
| > 100 | O=C(/C=C/c1ccc(O)cc1)c1ccc(O)cc1O [ISOLIQUIRITIGENIN] |  |
| > 100 | COc1ccc(-c2coc3cc(O)cc(O)c3c2=O)cc1O [PRATENSEIN] |  |
| 73 | O=c1c(O)c(-c2ccc(O)c(O)c2)oc2cc(O)ccc12 [FISETIN] | Non-Toxic |
| 6.87 | COc1ccc(-c2coc3c(O)c(O)ccc3c2=O)cc1O | Non-Toxic |
| > 100 | COc1ccc2c(c1)O[C@H](c1ccc(O)c(O)c1)CC2=O |  |
| 13.2 | COc1ccc(-c2coc3cc(O)ccc3c2=O)cc1 [FORMONONETIN] | Non-Toxic |
| 80.5 | Oc1cc(O)cc(/C=C/c2ccc(O)c(O)c2)c1 [PICEATANNOL] | Non-Toxic |
| > 100 | COc1cc([C@H]2OC[C@@H]3[C@H]2CO[C@@H]3c2cc(OC)c(O)c(OC)c2)ccc1O |  |
| > 100 | CCCCCCCCCCCCCCCCCCCCCCCCCC(=O)O [HEXACOSANOIC ACID] |  |
| > 100 | O=C(O)c1ccc(O)cc1 [PARABEN] |  |
| > 100 | COc1cc([C@@H]2OC[C@@H]3[C@H]2CO[C@H]3c2cc(OC)c(O)c(OC)c2)cc(OC)c1O |  |
| > 100 | C=C(C)[C@@H]1CC[C@]2(C)CC[C@]3(C)[C@H](CC[C@@H]4[C@@]5(C)CC[C@H](O)C(C)(C)[C@@H]5CC[C@]43C)[C@@H]12 [LUPEOL] |  |
| > 100 | O=C(O)/C=C/c1ccc(O)cc1 [COUMARIC ACID] |  |
| > 100 | O=C(O)/C=C/c1ccccc1 [CINNAMIC ACID] |  |
| 76.2 | COc1cc([C@H]2OC[C@H]3[C@@H]2CO[C@@H]3c2ccc(O)c(OC)c2)ccc1O | Non-Toxic |
| > 100 | O=C(O)/C=C/c1ccccc1O [O-COUMARIC ACID] |  |

| IC50 (BV-2 [1]) [µM] | SMILES | Activity (BV-2 [2]) |
| --- | --- | --- |
| > 100 | CCCCCCCCCCCCCCCCCCCCCCCCOC(=O)/C=C/c1ccc(O)c(OC)c1 |  |
| > 100 | C[N+](C)(C)C(Cc1c[nH]c2ccccc12)C(=O)[O-] (centres undefined) |  |
| 72.6 | O=C(C[C@@H](O)c1ccc(O)c(O)c1)c1ccc(O)cc1O | Non-Toxic |
| > 100 | O=C1c2ccc(O)cc2O[C@@H](c2ccc(O)c(O)c2)[C@@H]1O |  |
| 18.5 | COc1ccc(-c2coc3cc(O)c(OC)cc3c2=O)cc1O [ODORATIN] | Non-Toxic |
| > 100 | COc1cc([C@H]2OC[C@H]3[C@@H]2CO[C@H]3c2cc(OC)c(O)c(OC)c2)cc(OC)c1O |  |
| > 100 | O=C(O)c1ccc(O)c(O)c1 [PROTOCATECHUIC ACID] |  |
| 1.01 | COc1cc(O)c(-c2cc3ccc(O)cc3oc2=O)cc1OC | Non-Toxic |
| > 100 | Oc1cc(O)c2c(c1)C1C(c3cc(O)cc(O)c3[C@H]1c1ccc(O)c(O)c1)[C@@H]2c1ccc(O)c(O)c1 (some centres undefined) |  |
| > 100 | O=c1c(-c2ccc(O)c(O)c2)coc2cc(O)ccc12 |  |
| > 100 | CCCCCCCCCCCCCCCCCCOC(=O)/C=C/c1ccc(O)c(O)c1 |  |
| > 100 | O=C1CC(c2cc(O)cc(O)c2)Oc2cc(O[C@@H]3O[C@H](CO)[C@@H](O)[C@H](O)[C@H]3O)cc(O)c21 (some centres undefined) |  |
| 39.6 | COc1ccc(-c2coc3cc(O)ccc3c2=O)cc1O [CALYCOSIN] | Non-Toxic |
| 9.07 | CN(C)c1ccc(O)c2c1C[C@H]1C[C@H]3[C@H](N(C)C)C(O)=C(C(N)=O)C(=O)[C@@]3(O)C(O)=C1C2=O [MINOCYCLINE] |  |
| 18.7 | Oc1ccc(/C=C/c2cc(O)cc(O)c2)cc1 [RESVERATROL] | Non-Toxic |

| SMILES | IC50 (BV-2 [1]) [µM] | Activity (BV-2 [2]) |
| --- | --- | --- |
| COc1cc([C@H]2OC[C@H]3[C@@H]2CO[C@@H]3c2cc(OC)c(O[C@@H]3O[C@H](CO)[C@@H](O)[C@H](O)[C@H]3O)c(OC)c2)cc(OC)c1O[C@@H]1O[C@H](CO)[C@@H](O)[C@H](O)[C@H]1O [LIRIODENDRIN] | > 100 |  |
| O=Cc1ccc(O)c(O)c1 [PROTOCATECHUALDEHYDE] | > 100 |  |
| CC[C@H](CC[C@@H](C)[C@H]1CC[C@H]2[C@@H]3C(=O)C=C4C[C@@H](O)CC[C@]4(C)[C@H]3CC[C@]12C)C(C)C | > 100 |  |
